In ChEMBL document CHEMBL4808176, “Optimization of Truncated Glucagon Peptides to Achieve Selective, High Potency, Full Antagonists” (J Med Chem, 2021):
Activity calls are given as the source filed them. No cut-off for these calls is given here. Peptide text beside a SMILES is read from it.

What was measured:
Glucagon receptor [1] = biological target: T1, Glucagon receptor (Homo sapiens, UniProt P47871); experiment: Antagonist activity at human GCGR expressed in HEK293 cells assessed as inhibition of glucogon-induced cAMP production; type: functional, cell-based
T1 sequence (P47871 whole entry): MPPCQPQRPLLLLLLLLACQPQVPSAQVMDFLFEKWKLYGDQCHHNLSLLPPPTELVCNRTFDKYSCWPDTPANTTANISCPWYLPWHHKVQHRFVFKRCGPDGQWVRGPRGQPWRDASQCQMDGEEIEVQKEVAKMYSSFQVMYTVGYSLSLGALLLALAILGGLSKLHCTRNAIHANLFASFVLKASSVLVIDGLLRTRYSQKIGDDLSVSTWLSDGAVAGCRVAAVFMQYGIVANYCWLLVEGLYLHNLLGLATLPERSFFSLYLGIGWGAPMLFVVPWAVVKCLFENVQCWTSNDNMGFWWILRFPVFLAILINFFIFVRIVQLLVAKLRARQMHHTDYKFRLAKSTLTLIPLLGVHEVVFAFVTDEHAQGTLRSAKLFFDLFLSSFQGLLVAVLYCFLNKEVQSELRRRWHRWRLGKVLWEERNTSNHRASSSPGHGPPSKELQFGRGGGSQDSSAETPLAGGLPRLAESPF

Glucagon receptor [2] = biological target: T1, Glucagon receptor; experiment: Antagonist activity at human GCGR expressed in HEK293 cells assessed as inhibition of glucogon-induced cAMP production by schild plot analysis; type: functional, cell-based; conditions: dose 0.1-1.6 µM
[3] = AUC in C57BL/6 mouse at 1500 nmol/kg, sc measured upto 240 mins by LC-MS analysis; type: ADME, organism-based; parameters: route subcutaneous, dose 1500 nmol/kg, time <=240; conditions: in vivo
[4] = Cmax in C57BL/6 mouse at 1500 nmol/kg, sc measured upto 240 mins by LC-MS analysis; type: ADME, organism-based; parameters: route subcutaneous, dose 1500 nmol/kg, time <=240; conditions: in vivo
[5] = biological target: Glucagon receptor (Mus musculus) (UniProt Q61606); experiment: Antagonist activity at mouse GCGR expressed in CHO-K1 cells assessed as inhibition of glucogon-induced cAMP production relative to control; type: functional, cell-based; conditions: filed as antagonist, concentration not given here
Sequence of Glucagon receptor (Mus musculus) (Q61606 whole entry): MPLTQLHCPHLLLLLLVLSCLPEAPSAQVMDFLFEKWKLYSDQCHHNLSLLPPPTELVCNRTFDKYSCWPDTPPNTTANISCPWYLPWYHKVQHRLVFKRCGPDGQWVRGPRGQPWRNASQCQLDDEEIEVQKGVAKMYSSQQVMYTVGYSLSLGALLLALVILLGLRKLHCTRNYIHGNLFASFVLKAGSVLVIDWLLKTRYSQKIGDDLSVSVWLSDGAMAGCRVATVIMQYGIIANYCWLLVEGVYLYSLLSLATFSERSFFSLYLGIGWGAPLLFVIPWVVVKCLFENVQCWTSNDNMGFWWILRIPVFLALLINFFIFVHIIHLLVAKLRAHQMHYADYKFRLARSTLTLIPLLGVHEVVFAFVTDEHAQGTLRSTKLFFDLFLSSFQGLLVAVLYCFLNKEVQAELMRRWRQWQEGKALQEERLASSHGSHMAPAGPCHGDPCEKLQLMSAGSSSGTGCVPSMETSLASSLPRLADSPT

[6] = biological target: T2, Gastric inhibitory polypeptide receptor (Mus musculus, UniProt Q0P543); experiment: Antagonist activity at mouse GIPR expressed in CHO-K1 cells assessed as inhibition of GIP-induced cAMP production; type: cell-based
T2 sequence (Q0P543 whole entry): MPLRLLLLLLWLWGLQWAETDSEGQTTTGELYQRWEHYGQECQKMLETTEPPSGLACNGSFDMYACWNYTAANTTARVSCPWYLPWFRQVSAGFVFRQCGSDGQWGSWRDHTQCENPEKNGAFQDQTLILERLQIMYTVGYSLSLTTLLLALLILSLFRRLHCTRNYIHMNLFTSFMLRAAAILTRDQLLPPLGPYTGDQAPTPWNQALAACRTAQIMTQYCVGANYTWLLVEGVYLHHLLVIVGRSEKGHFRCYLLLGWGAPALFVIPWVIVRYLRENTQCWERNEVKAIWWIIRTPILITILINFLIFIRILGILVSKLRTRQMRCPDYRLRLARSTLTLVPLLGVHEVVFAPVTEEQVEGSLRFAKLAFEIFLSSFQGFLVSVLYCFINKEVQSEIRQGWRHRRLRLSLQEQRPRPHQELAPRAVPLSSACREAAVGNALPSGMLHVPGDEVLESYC

[7] = biological target: Glucagon-like peptide 1 receptor (Homo sapiens, UniProt P43220); experiment: Antagonist activity at human GLP-1R expressed in HEK293 cells assessed as inhibition of GLP1-induced cAMP production; type: functional, cell-based
Sequence of Glucagon-like peptide 1 receptor (Homo sapiens, UniProt P43220) (P43220 whole entry): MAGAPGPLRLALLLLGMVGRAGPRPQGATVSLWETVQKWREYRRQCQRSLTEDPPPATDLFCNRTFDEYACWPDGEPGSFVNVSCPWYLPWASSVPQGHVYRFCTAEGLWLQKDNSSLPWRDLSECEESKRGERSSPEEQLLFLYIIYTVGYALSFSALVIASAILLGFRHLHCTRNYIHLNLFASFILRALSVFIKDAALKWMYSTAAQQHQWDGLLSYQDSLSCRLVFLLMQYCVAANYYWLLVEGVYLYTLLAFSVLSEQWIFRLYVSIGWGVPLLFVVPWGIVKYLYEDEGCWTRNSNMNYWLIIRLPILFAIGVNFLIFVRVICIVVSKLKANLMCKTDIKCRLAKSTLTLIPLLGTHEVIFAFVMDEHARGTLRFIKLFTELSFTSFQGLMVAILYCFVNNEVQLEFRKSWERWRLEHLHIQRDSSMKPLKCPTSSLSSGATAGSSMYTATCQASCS

[8] = biological target: T3, Glucagon-like peptide 1 receptor (Mus musculus, UniProt O35659); experiment: Antagonist activity at mouse GLP1R expressed in CHO-K1 cells assessed as inhibition of GLP1-induced cAMP production; type: functional, cell-based
T3 sequence (O35659 whole entry): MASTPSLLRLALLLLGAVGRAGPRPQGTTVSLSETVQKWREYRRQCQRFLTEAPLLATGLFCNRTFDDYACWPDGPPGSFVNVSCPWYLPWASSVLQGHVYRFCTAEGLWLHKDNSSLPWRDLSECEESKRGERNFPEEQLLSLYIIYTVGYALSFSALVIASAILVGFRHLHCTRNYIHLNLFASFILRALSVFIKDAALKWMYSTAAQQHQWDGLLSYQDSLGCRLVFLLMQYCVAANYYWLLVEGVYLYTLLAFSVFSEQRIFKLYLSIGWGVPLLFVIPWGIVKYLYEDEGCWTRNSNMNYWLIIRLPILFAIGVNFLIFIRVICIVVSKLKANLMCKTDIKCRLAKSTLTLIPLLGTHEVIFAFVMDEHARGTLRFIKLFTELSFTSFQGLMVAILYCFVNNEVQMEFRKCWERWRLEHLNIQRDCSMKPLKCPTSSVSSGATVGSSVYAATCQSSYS

[9] = Chemical stability of compound in PBS buffer incubated for 5 to 7 days by LC-MS analysis; type: physicochemical; conditions: time 5-7 day
[10] = biological target: T4, Gastric inhibitory polypeptide receptor (Homo sapiens) (UniProt P48546); experiment: Antagonist activity at human GIPR expressed in HEK293 cells assessed as inhibition of GIP-induced cAMP production relative to control; type: functional, cell-based; conditions: concentration not given here
T4 sequence (whole entry): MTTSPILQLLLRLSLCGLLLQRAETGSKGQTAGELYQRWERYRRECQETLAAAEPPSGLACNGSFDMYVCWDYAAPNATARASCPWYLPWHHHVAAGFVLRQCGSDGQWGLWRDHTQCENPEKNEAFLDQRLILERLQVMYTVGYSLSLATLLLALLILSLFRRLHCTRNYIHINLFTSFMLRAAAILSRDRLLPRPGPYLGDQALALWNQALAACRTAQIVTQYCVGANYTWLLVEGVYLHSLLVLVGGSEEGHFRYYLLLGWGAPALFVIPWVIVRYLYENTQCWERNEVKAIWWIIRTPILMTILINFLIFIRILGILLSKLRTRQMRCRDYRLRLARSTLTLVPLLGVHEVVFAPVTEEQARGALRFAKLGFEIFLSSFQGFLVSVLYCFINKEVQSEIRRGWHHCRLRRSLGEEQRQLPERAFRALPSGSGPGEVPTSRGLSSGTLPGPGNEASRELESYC

[11] = biological target: T5, Glucagon-like peptide 1 receptor (Mus musculus) (UniProt O35659); experiment: Antagonist activity at mouse GLP1R expressed in CHO-K1 cells assessed as inhibition of GLP1-induced cAMP production relative to control; type: functional, cell-based; conditions: concentration not given here
T5 sequence (whole entry): T3 sequence (O35659 whole entry)

Mus musculus = experiment: Inhibition of IUB288-induced glucose elevation in C57BL/6 mouse at 1500 nmol/kg, sc pretreated for 15 mins followed by IUB288 stimulation and measured upto 120 mins; type: functional, organism-based; conditions: time 135.0 min
[12] = Toxicity in C57BL/6 mouse assessed as adverse local and systemic responses at 1500 nmol/kg, sc; conditions: in vivo
[13] = biological target: T6, Gastric inhibitory polypeptide receptor (Homo sapiens, UniProt P48546); experiment: Antagonist activity at human GIPR expressed in HEK293 cells assessed as inhibition of GIP-induced cAMP production; type: functional, cell-based
T6 sequence (P48546 whole entry): T4 sequence (whole entry)

[14] = Aqueous solubility of the compound at pH 8 by LC-MS analysis; type: physicochemical; conditions: buffer
Glucagon receptor [15] = biological target: T1, Glucagon receptor; experiment: Antagonist activity at human GCGR expressed in HEK293 cells assessed as inhibition of glucogon-induced cAMP production relative to control; type: functional, cell-based; conditions: filed as antagonist, concentration not given here
[16] = Half life in C57BL/6 mouse at 1500 nmol/kg, sc measured upto 240 mins by LC-MS analysis; type: ADME, organism-based; conditions: in vivo
[17] = biological target: T7, Gastric inhibitory polypeptide receptor (Mus musculus) (UniProt Q0P543); experiment: Antagonist activity at mouse GIPR expressed in CHO-K1 cells assessed as inhibition of GIP-induced cAMP production relative to control; type: cell-based; conditions: concentration not given here
T7 sequence (whole entry): T2 sequence (Q0P543 whole entry)

Glucagon receptor [18] = biological target: Glucagon receptor (Mus musculus, UniProt Q61606); experiment: Antagonist activity at mouse GCGR expressed in CHO-K1 cells assessed as inhibition of glucogon-induced cAMP production; type: functional, cell-based
Sequence of Glucagon receptor (Mus musculus, UniProt Q61606) (Q61606 whole entry): as the sequence (Q61606 whole entry) above

Glucagon receptor [19] = biological target: T1, Glucagon receptor; experiment: Partial antagonist activity at human GCGR expressed in HEK293 cells assessed as inhibition of glucogon-induced cAMP production; type: functional, cell-based; conditions: filed as antagonist
[20] = biological target: Glucagon receptor (Rattus norvegicus) (UniProt P30082); experiment: Displacement of 125I-glucagon from GCGR of rat liver membrane; type: cell membranes; conditions: filed as antagonist
Sequence of Glucagon receptor (Rattus norvegicus) (P30082 whole entry): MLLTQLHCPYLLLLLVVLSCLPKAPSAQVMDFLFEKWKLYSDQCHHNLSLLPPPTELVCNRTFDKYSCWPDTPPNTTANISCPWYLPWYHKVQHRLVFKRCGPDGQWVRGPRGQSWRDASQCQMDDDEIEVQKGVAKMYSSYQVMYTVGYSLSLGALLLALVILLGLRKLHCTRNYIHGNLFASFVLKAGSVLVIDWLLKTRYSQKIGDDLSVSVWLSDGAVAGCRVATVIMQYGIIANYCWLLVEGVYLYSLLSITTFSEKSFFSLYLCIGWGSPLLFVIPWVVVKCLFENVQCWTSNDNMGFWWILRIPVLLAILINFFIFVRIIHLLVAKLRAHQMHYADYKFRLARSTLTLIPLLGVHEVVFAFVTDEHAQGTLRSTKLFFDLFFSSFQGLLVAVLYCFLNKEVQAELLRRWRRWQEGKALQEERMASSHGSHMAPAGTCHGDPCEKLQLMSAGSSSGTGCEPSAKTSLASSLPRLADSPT

CSCC[C@H](NC(=O)[C@H](CC(C)C)NC(=O)[C@H](Cc1c[nH]c2ccccc12)NC(=O)[C@H](CCC(N)=O)NC(=O)[C@@H](NC(=O)[C@H](Cc1ccccc1)NC(=O)[C@H](CC(=O)O)NC(=O)[C@H](CCC(N)=O)NC(=O)[C@H](C)NC(=O)[C@H](CCCNC(=N)N)NC(=O)[C@H](CCCNC(=N)N)NC(=O)[C@H](CO)NC(=O)[C@H](CC(=O)O)NC(=O)[C@H](CC(C)C)NC(=O)[C@H](Cc1ccc(O)cc1)NC(=O)[C@H](CCCCN)NC(=O)[C@H](CO)NC(=O)[C@H](Cc1ccc(O)cc1)NC(=O)[C@H](CCC(=O)O)NC(=O)[C@H](CO)NC(=O)[C@@H](NC(=O)[C@@H](O)Cc1ccccc1)[C@@H](C)O)C(C)C)C(=O)N[C@@H](CC(N)=O)C(=O)N[C@H](C(N)=O)[C@@H](C)O (HELM PEPTIDE1{[O=C([C@@H](O)Cc1ccccc1)[*:2]].T.S.E.Y.S.K.Y.L.D.S.R.R.A.Q.D.F.V.Q.W.L.M.N.T.[am]}$$$$V2.0)
IC50 (Glucagon receptor [1]): 40 nM
Activity (Glucagon receptor [2]; filed as antagonist): Dose-Dependent Effect

CSCC[C@H](NC(=O)[C@H](CC(C)C)NC(=O)[C@H](Cc1c[nH]c2ccccc12)NC(=O)[C@H](CCC(N)=O)NC(=O)[C@@H](NC(=O)[C@H](Cc1ccccc1)NC(=O)[C@H](CC(=O)O)NC(=O)[C@H](CCC(N)=O)NC(=O)[C@H](C)NC(=O)[C@H](CCCNC(=N)N)NC(=O)[C@H](CCCNC(=N)N)NC(=O)[C@H](CO)NC(=O)[C@H](CC(=O)O)NC(=O)[C@H](CC(C)C)NC(=O)[C@H](Cc1ccc(O)cc1)NC(=O)[C@H](CCCCN)NC(=O)[C@H](CO)NC(=O)[C@H](Cc1ccc(O)cc1)NC(=O)[C@H](CC(=O)O)NC(=O)[C@H](CO)NC(=O)[C@@H](NC(=O)[C@@H](O)Cc1ccccc1)[C@@H](C)O)C(C)C)C(=O)N[C@@H](CC(=O)O)C(=O)N[C@H](C(N)=O)[C@@H](C)O
IC50 (Glucagon receptor [1]): 12.1 nM
AUC at 4 h [3]: 0.209 µM·h
Cmax [4]: 261 nM
inhibition [5]: 92%
IC50 [6]: > 1000 nM
IC50 [7]: > 1000 nM
IC50 [8]: > 1000 nM
Stabilty [9]: Stable
inhibition [10]: 20%
inhibition [11]: 1%
inhibition (Mus musculus): Active
Activity [12]: Non-Toxic
IC50 [13]: > 1000 nM
solubility [14]: > 500 µM
inhibition (Glucagon receptor [15]): 99%
half-life [16]: 30.7 min
inhibition [17]: 10%
IC50 (Glucagon receptor [18]): 23.1 nM

H-LTFTSEYSKYLDSRRAQDFVQWLMNT-NH2
Activity (Glucagon receptor [2]): inactive
Activity (Glucagon receptor [19]): Active

CSCC[C@H](NC(=O)[C@H](CC(C)C)NC(=O)[C@H](Cc1c[nH]c2ccccc12)NC(=O)[C@H](CCC(N)=O)NC(=O)[C@@H](NC(=O)[C@H](Cc1ccccc1)NC(=O)[C@H](CC(=O)O)NC(=O)[C@H](CCC(N)=O)NC(=O)[C@H](C)NC(=O)[C@H](CCCN=C(N)N)NC(=O)[C@H](CCCN=C(N)N)NC(=O)[C@H](CO)NC(=O)[C@H](CC(=O)O)NC(=O)[C@H](CC(C)C)NC(=O)[C@H](Cc1ccc(O)cc1)NC(=O)[C@H](CCCCN)NC(=O)[C@H](CO)NC(=O)[C@H](Cc1ccc(O)cc1)NC(=O)[C@H](CCC(=O)O)NC(=O)[C@H](CO)NC(=O)[C@@H](NC(=O)[C@H](Cc1ccccc1)NC(=O)[C@@H](NC(=O)CNC(=O)[C@H](CCC(N)=O)NC(=O)[C@@H](N)CO)[C@@H](C)O)[C@@H](C)O)C(C)C)C(=O)N[C@@H](CC(N)=O)C(=O)N[C@H](C(N)=O)[C@@H](C)O
Activity (Glucagon receptor [2]): inactive
Activity [20]: 41%
Activity (Glucagon receptor [19]): Active
